In patent publication EP0454058B1, “Use of anthraquinone derivatives in the prophylaxis and treatment of viral diseases” (LOMAPHARM Rudolf Lohmann GmbH KG Pharmazeutische Fabrik, priority 1990, dated 1991):
Converted amounts (≈) assume the structure as drawn. Where two headings read alike, the source gives them in different places.

Legend:
Format in all cases: cell-based
Herpes simplex-Viren [1] = experiment: Plaque inhibition test (Plaquehemmungstest, agar diffusion test); details: read-out: Hemmhofdurchmesser (mm)
Text: Der Plaquehemmungstest (Agardiffusionstest) wird nach der Methode von E. C. Herrmann et al., 1960 (6) durchgeführt. Auch bei diesem Test werden virusinfizierte tierische Zellkulturen verwendet. In diesem Fall wird in Petrischalen durch ein mit Hilfe von Agar verfestigtes Medium das unkontrollierte Ausbreiten der Viren verhindert. Es kommt zu einer lokal begrenzten Zerstörung der Zellen, die nach einer Färbung als Löcher im Zellrasen erkennbar ist. Die Testsubstanzen werden auf Filterpapierblättchen aufgetragen und auf das feste Medium aufgelegt. In einem Bereich um diese Blättchen werden durch die virustatische Wirkung der Testsubstanz die Zellen geschützt und es entstehen so kreisförmige Hemmzonen. Die Größe der Hemmzone kann als Maß für die virustatische Wirksamkeit ausgewertet werden.
Durchführung: Ein Monolayer von MK2-, HeLa-, Rita-Zellen oder einer anderen geeigneten Zellinie wird in einer Petrischale mit Viren infiziert, so daß eine große Zahl von einzelnen Plaques entsteht. Nach einer Bindung von 45 Minuten bei Zimmertemperatur wird der Zellrasen einmal mit phosphatgepufferter Kochsalzlösung gewaschen und mit einer Agar-Oberschicht versehen. Auf diese Agarschicht werden Filterpapierblättchen (10 mm Durchmesser) gelegt, die mit einer Lösung der Testsubstanz getränkt sind. Nach 48 bis 72 Stunden Bebrütung bei 37 °C in CO2-Atmosphäre (5 %) wird eine zweite Oberschicht darübergegeben, die den Vitalfarbstoff Tetrazoliumchlorid enthält. Nach weiteren 24 Stunden Bebrütung wird der Hemmhofdurchmesser, unterteilt in "toxische Zone" und "therapeutische Zone", in mm ausgemessen.

[2] = tested on: HHV 6 (Human herpes-Virus Typ 6); experiment: Virus replication in human lymphocyte cultures, passages in presence of substance; details: 10 µg/ml, after three passages
Text: In weiteren Versuchen wurde die Wirkung von Alizarin auf die Vermehrung von HHV 6 (Human herpes-Virus Typ 6) untersucht. Diese Viren lassen sich aus dem Blut von immunsupprimierten Patienten mit Leukämie, Lymphomen oder Aids sowie von Kindern mit Roseola infantum isolieren.
Die Testung erfolgte in menschlichen Lymphocytenkulturen.

Hela-Zellen = experiment: Dye test (Farbtest), parallel runs without virus: cytotoxicity; details: for Extinktion bei 546 nm Hela-Zellen: cells without virus, 72 h
Text: (§1) Der Farbtest, wie von Armstrong, 1971 (5) beschrieben, beruht darauf, daß die durch die Viren zerstörten Zellen nicht mehr gefärbt werden können. Je höher der Anteil an intakten Zellen nach der Inkubation mit dem jeweiligen Virus durch die virustatische Wirkung einer Substanz ist, um so mehr Farbstoff wird gebunden. Der Farbstoff läßt sich aus den gefärbten Zellen extrahieren und seine Menge kann in einem Photometer, z. B. bei Verwendung von Kristallviolett bei 546 nm, gemessen werden. Damit erlaubt der Test meßbare und reproduzierbare Angaben sowohl über die virustatische, wie auch durch Parallelversuche mit Zellkulturen ohne Viren über die cytotoxische Wirkung von Substanzen.
(§2) Durchführung: 10 mg der Testsubstanz wurden in 10 ml Ethylalkohol gelöst. Unter Verwendung des Mediums für die Zellkultur wurde eine Verdünnungsreihe mit Konzentrationen von 1,56 µg/ml bis 25 µg/ml Testsubstanz eingestellt. Diese Lösungen werden auf 24 Stunden alte MK2-, HeLa-, Rita-Zellen oder andere geeignete Zellen gegeben, nachdem diese vorher 45 Minuten zur Infektion mit einer Suspension von Viren überschichtet worden waren. Zur Prüfung der Cytotoxizität werden Parallelansätze ohne Viruszugabe analog mit den verschiedenen Verdünnungsstufen der Prüfsubstanz überschichtet. Die Versuchsansätze mit Virus und Testsubstanz bzw. nur der Testsubstanz werden 72 Stunden bei 37 °C bebrütet. Anschließend werden die Zellen fixiert und für 15 Minuten mit Kristallviolettlösung gefärbt. Nach Spülen mit Wasser wird der an die Zellen gebundene Farbstoff mit Ethanol extrahiert und in einem Photometer die Extinktion bei 546 nm (Absorption für Kristallviolett) gemessen.

Cytomegalie-Viren = experiment: Plaque reduction test (Plaquereduktionstest) in human foreskin fibroblasts; details: Fibroblast, plaque count versus virus control, read-out: Hemmung (%)
Text: Für die Prüfung der Wirksamkeit gegenüber Cytomegalie-Viren (CMV) werden mit diesen Viren infizierte menschliche Vorhautfibroblasten eingesetzt. Nach der Inkubation werden die entstandenen Plaques angefärbt und ausgezählt. Zur Auswertung wird die Plaquezahl unter dem Einfluß einer definierten Substanzmenge mit der Viruskontrolle verglichen.
Mit einer ähnlichen Versuchsanordnung wie im Plaquehemmungstest kann die Wirkung des Alizarins gegen Cytomegalie-Viren bestimmt werden (siehe Plaquereduktionstest, Methode 3). Die Untersuchung für das Cytomegalie-Virus in einer Zellinie von menschlichen Vorhautfibroblasten ergab die in Tabelle II angegebenen Werte für die Hemmung im Vergleich zur Viruskontrolle. Zur Auswertung wurden hier die gebildeten Plaques gezählt und im Vergleich zur Viruskontrolle ausgewertet (siehe Tabelle II). Tabelle II

Herpes simplex-Viren [3] = experiment: Dye test (Farbtest, crystal violet): virustatic effect in virus-infected cell cultures; details: for Extinktion bei 546 nm Hela-Zellen mit Herpes-Virus: virus control 0,144, cell control 0,648
Text: as §1, §2
Zur Auswertung werden die Extinktionen und auch die Konzentration mit einem Zellschutz von 50 % berechnet.
Falls die Testsubstanz keine wesentlichen cytotoxischen Eigenschaft besitzt, kann die antivirale Schutzwirkung nach nach folgender Formel in Prozent berechnet werden: (E3 - E2)/(E1 - E2)x 100 [formula] E1 = Extinktion der Zellkontrolle E2 = Extinktion der Viruskontrolle E3 = Extinktion der Versuchsansätze mit Virus und Alizarin

[4] = Substanzmenge 10 µg/ml pro Testblättchen, Rita-Zellen
[5] = Substanzmenge 20 µg/ml pro Testblättchen, Rita-Zellen
[6] = Substanzmenge 40 µg/ml pro Testblättchen, Rita-Zellen

Q: What does the source list for `O=C1c2ccccc2C(=O)c2c1ccc(O)c2O` [Alizarin, 1,2-Dihydroxy-9,10-anthracendion]?
A: zone of inhibition at 10 µg/mL (Herpes simplex-Viren [1]): 14 mm; zone of inhibition at 20 µg/mL (Herpes simplex-Viren [1]): 18 mm; zone of inhibition at 40 µg/mL (Herpes simplex-Viren [1]): 20 mm; Virus nachweisbar in den Zellen [2]: kein Virus mehr nachweisbar; Extinktion bei 546 nm Hela-Zellen (Hela-Zellen; 25 µg/ml): 0,328; Extinktion bei 546 nm Hela-Zellen (Hela-Zellen; 3,125 µg/ml): 0,693; Extinktion bei 546 nm Hela-Zellen (Hela-Zellen; 1,56 µg/ml): 0,655; Extinktion bei 546 nm Hela-Zellen (Hela-Zellen; 6,25 µg/ml): 0,634; Extinktion bei 546 nm Hela-Zellen (Hela-Zellen; 12,5 µg/ml): 0,510; cytotoxische Wirkung (Hela-Zellen; at the higher concentrations of Tabelle I a / I b): schwache cytotoxische Wirkung; inhibition at 5 µg/mL (Cytomegalie-Viren; 5 µg/ml): 10%; inhibition at 10 µg/mL (Cytomegalie-Viren; 10 µg/ml): 60%; inhibition at 15 µg/mL (Cytomegalie-Viren; 15 µg/ml): 100%; inhibition at 20 µg/mL (Cytomegalie-Viren; 20 µg/ml): 100%; Extinktion bei 546 nm Hela-Zellen mit Herpes-Virus (Herpes simplex-Viren [3]; 25 µg/ml, 72 h): 0,235; Extinktion bei 546 nm Hela-Zellen mit Herpes-Virus (Herpes simplex-Viren [3]; 3,125 µg/ml, 72 h): 0,329; Extinktion bei 546 nm Hela-Zellen mit Herpes-Virus (Herpes simplex-Viren [3]; 1,56 µg/ml, 72 h): 0,206; Extinktion bei 546 nm Hela-Zellen mit Herpes-Virus (Herpes simplex-Viren [3]; 6,25 µg/ml, 72 h): 0,403; Extinktion bei 546 nm Hela-Zellen mit Herpes-Virus (Herpes simplex-Viren [3]; 12,5 µg/ml, 72 h): 0,338; inhibition at 3.125 µg/mL (Herpes simplex-Viren [3]; 72 h, 3.125 µg/mL, Hela-Zellkulturen, read-out: Zellschutz (%)): 37%; inhibition at 25 µg/mL (Herpes simplex-Viren [3]; 72 h, 25 µg/ml, Hela-Zellkulturen, read-out: Zellschutz (%)): 18%; inhibition at 1.56 µg/mL (Herpes simplex-Viren [3]; 72 h, 1,56 µg/ml, Hela-Zellkulturen, read-out: Zellschutz (%)): 12%; inhibition at 6.25 µg/mL (Herpes simplex-Viren [3]; 72 h, 6,25 µg/ml, Hela-Zellkulturen, read-out: Zellschutz (%)): 51%; inhibition at 12.5 µg/mL (Herpes simplex-Viren [3]; 72 h, 12,5 µg/ml, Hela-Zellkulturen, read-out: Zellschutz (%)): 38%; EC50 (Herpes simplex-Viren [3]; experiment of Tabelle I a, read-out: Konzentration, die einen Zellschutz von 50 % bewirkt): 5.96 µg/mL (≈ 24.8 µM); IC50 (Herpes simplex-Viren [3]; in presence of 10 % Serum, read-out: 50 % Hemmwert): 11.3 µg/mL; IC50 (Herpes simplex-Viren [3]; mean of four experiments, read-out: Mittelwert für eine 50 %ige Hemmung der Virusvermehrung): 4.87 µg/mL (≈ 20.3 µM)

Q: Which zone of inhibition at 10 µg/mL (Herpes simplex-Viren [1]; [4]) does the source give for `O=C1c2ccccc2C(=O)c2c1cc(S(=O)(=O)O)c(O)c2O` [Alizarinsulfonsäure (2), 9,10-Dihydro-3,4-dihydroxy-9,10-dioxo-2-anthracensulfonsäure.Mononatriumsalz] here?
A: 10 mm

Q: What about the zone of inhibition at 20 µg/mL (Herpes simplex-Viren [1]; [5]) of the same molecule?
A: 12 mm

Q: And the zone of inhibition at 40 µg/mL (Herpes simplex-Viren [1]; [6])?
A: 19 mm

Q: For `O=C1c2ccc(O)cc2C(=O)c2ccc(O)cc21` [Anthraflavinsäure (5), 2,6-Dihydroxyanthrachinon], which zone of inhibition at 10 µg/mL (Herpes simplex-Viren [1]; [4]) is on record?
A: 9 mm

Q: What about the zone of inhibition at 20 µg/mL (Herpes simplex-Viren [1]; [5]) of the same molecule?
A: 13 mm

Q: What about the zone of inhibition at 40 µg/mL (Herpes simplex-Viren [1]; [6]) of the same molecule?
A: 15 mm

Q: For `O=C1c2ccccc2C(=O)c2c(O)ccc(O)c21` [Chinizarin (3), 1,4-Dihydroxyanthrachinon], which zone of inhibition at 10 µg/mL (Herpes simplex-Viren [1]; [4]) is on record?
A: 11 mm

Q: What about the zone of inhibition at 20 µg/mL (Herpes simplex-Viren [1]; [5]) of the same molecule?
A: 13 mm

Q: What about the zone of inhibition at 40 µg/mL (Herpes simplex-Viren [1]; [6]) of the same molecule?
A: 16 mm

Q: Which results are given for `O=C1c2cccc(O)c2C(=O)c2c(O)cccc21` [Chrysazin (4), 1,8-Dihydroxyanthrachinon]?
A: zone of inhibition at 10 µg/mL (Herpes simplex-Viren [1]; [4]): 8 mm; zone of inhibition at 20 µg/mL (Herpes simplex-Viren [1]; [5]): 12 mm; zone of inhibition at 40 µg/mL (Herpes simplex-Viren [1]; [6]): 16 mm
